Assay results from patent US9061994B1, “Materials and methods useful to induce vacuolization, cell death, or a combination thereof” (The University of Toledo, priority 2011, dated 2015).
pIC50: −log10 of the molar value. “Also recorded” adds a separate entry of the source. Read-outs that look alike come from different tables or passages of the source.

Legend:
U251 glioblastoma cells [1] = assay: MTT cell viability assay; type: cell-based, human; settings: for pIC50: Homo sapiens, U-251, 48 h
[2] = system: temozolomide-resistant U251 cells (U251-TR); assay: MTT cell viability assay, temozolomide-resistant cells; type: cell-based, human
[3] = system: LN229, U2OS, MCF7, SW480 and PANC-1 cancer cell lines; assay: MTT cell viability assay, other cancer cell lines; type: cell-based; settings: Homo sapiens; 10 μM MIPP; all of the cancer cell lines (FIG. 27); read-out: reduction of relative cell viability
[4] = MTT cell viability assay, mammary epithelial cells; type: cell-based; settings: human, MCF-10A mammary epithelial cells, 10 μM MIPP (FIG. 27), read-out: reduction in cell viability
[5] = MTT cell viability assay, normal fibroblasts; type: cell-based; settings: human, normal skin fibroblasts, 10 μM MIPP (FIG. 27), read-out: reduction in cell viability
U251 glioblastoma cells [6] = assay: Cell morphology / vacuolization by phase-contrast microscopy; type: cell-based, human
U251 glioblastoma cells [7] = assay: Colony-forming assay; type: cell-based, human; settings: cells treated for 2 days (FIGS. 15, 40)
U251-TR cells = assay: Colony-forming assay, temozolomide-resistant cells; type: cell-based, human; settings: 10 μM MIPP, 2 days (FIG. 21)
Description: (§1) For colony-forming assays, cells were plated in 100 mm dishes at 2,500 (U251 and U251-TR) or 1,500 (all other cell lines) cells per dish. Beginning on the day after plating, the cells were exposed to 10 μM MIPP for 2 days, with the medium and drug replenished after 1 day. The cells were fed fresh medium without drug every 2 to 3 d for a period of 10-21 days. To visualize the colonies, the dishes were washed with PBS, fixed for 10 min with ice-cold 100% methanol, and stained with 1% crystal violet in 35% methanol. After 2-3 washes with water, colonies containing at least 50 cells were counted using a dissecting microscope or a Protocol 2 colony counter.

[8] = system: LN229, U2OS, MCF7, SW480 and PANC-1 cancer cell lines; assay: Colony-forming assay, other cancer cell lines; type: cell-based, human; settings: exposure for 2 days (FIG. 28)
Description: as §1
Also disclosed herein is an analysis of the effects of the compound in several other cell lines. These include an additional glioma cell line (LN229), osteosarcoma cells (U2OS), and breast (MCF7), colon (SW480) and pancreatic (PANC-1) carcinoma cells. Similar to the results with U251 cells, 10 μM MIPP induced dramatic cytoplasmic vacuolization in all of the cell lines, as shown in FIG. 26.

active Rac1 = assay: Pull-down assay for activated Rac1; type: cell-based, human; settings: U251; 10 μM MIPP; 4 h or 24 h
Description: (§2) Assays for activated Rac1 and Arf6 were performed using EZ-Detect Rac1 or Arf6 activation kits. These assays employ either a GST-fusion protein containing the p21-binding domain of p21-activated protein kinase 1 (PAK1) to selectively bind active Rac1 in whole cell lysates, or GST-GGA3 (Golgi-associated gamma adaptin ear-containing Arf binding protein 3) to pull down active Arf6. The active Rac1 or Arf6 collected on the glutathione beads were subjected to western blot analysis and the chemiluminescence signals were quantified using Alpha Innotech FluorChem HD2 imaging system. The values for active protein in each sample were normalized to α-tubulin. Results were expressed as either the total active Rac1 or Arf6, or the ratio of the active GTPase to the total Rac1 or Arf6 measured in aliquots of the cell lysate.

active Arf6 = assay: Pull-down assay for activated Arf6; type: cell-based, human; settings: U251; 10 μM MIPP; 4 h or 24 h
Description: as §2

active Rab5 = assay: Pull-down assay for active Rab5; type: cell-based, human; settings: U251; 10 μM; 4 h and 24 h
Description: (§3) GST-fusion proteins were produced in E. coli BL21 (DE3) pLysS and the fusion proteins were bound to glutathione-sepharose 4B beads. Pull-down assays for active Rab5 using the GST-Rabaptin-5 beads were performed. Assays for active Rab7 were performed. For each determination cell lysates were prepared from ten pooled 10 cm cultures. Monoclonal antibodies against Rab5 or Rab7 were used to probe western blots of the proteins collected on the beads. Results were quantified and normalized as described above for Rac1 and Arf6.

active Rab7 = assay: Pull-down assay for active Rab7; type: cell-based, human; settings: U251; 10 μM; up to 24 h
Description: as §3

U251 glioblastoma cells [9] = assay: ATP level (CellTiter Glo); type: cell-based, human; settings: second day after addition of MIPP (FIG. 13)
Text: To compare the levels of ATP in MIPP-treated glioblastoma cells versus controls treated with an equivalent volume of DMSO, the cells were harvested by trypsinization and assayed using the CellTiter Glo kit from Promega according to the manufacturer's instructions.

## Cc1[nH]c2ccccc2c1C=CC(=O)c1ccncc1 [MIPP, 3-(2-methyl-1H-indol-3-yl)-1-(4-pyridinyl)-2-propen-1-one]
U251 glioblastoma cells [1]; U251, two days, medium and compound replenished after the first day (FIG. 37D), read-out: IC50 (cell viability)
  pIC50: 5.32
U251 glioblastoma cells [1]; parental U251, MTT dose-response over a 2-day period (FIG. 20), read-out: IC50, parental cells
  pIC50: 5.46
U251 glioblastoma cells [1]; U251, 10 μM, first two days of treatment (FIG. 12)
  relative cell viability, in words: marked decrease in the relative cell viability
[2]; FIGS. 41A-41B
  methuosis and cell viability in TMZ-resistant cells, in words: induced methuosis and reduced cell viability in the TMZ-resistant cells
[2]; Homo sapiens, U-251, 48 h, U251-TR, MTT dose-response over a 2-day period (FIG. 20)
  pIC50: 5.22
[3]
  cytotoxicity at 10 μM: 50 to 90%
[4]
  cytotoxicity at 10 μM: 30%
[5]
  cytotoxicity at 10 μM: 40%
U251 glioblastoma cells [6]; 1 μM
  cell morphology / vacuolization: behaved similarly to Compound I when tested at 1 μM
U251 glioblastoma cells [6]; 10 μM
  cell morphology / vacuolization: induced vacuoles that were larger and more numerous than those induced by Compound I
U251 glioblastoma cells [7]
  colony formation: non-viable in colony-forming assays; also recorded: reduced colony formation
U251-TR cells
  survival (colony formation): significant decline in survival
[8]
  long-term cell survival (colony formation): significantly reduced long-term cell survival in all cases
Active Rac1
  amount of active Rac1: no significant effects
Active Arf6
  amount of active Arf6: no significant effects
Active Rab5
  amount of active Rab5: striking decline in the amount of active Rab5
Active Rab7
  amount / activation state of active Rab7: more than doubling by 24 h
U251 glioblastoma cells [9]
  ATP level: significant decrease in ATP
